Patent US5162201A, “Analytical method making use of monoglyceride lipase” (priority 1987, dated 1992)

Assays:
[1] = system: monoglyceride lipase of this invention; test: Substrate specificity of the monoglyceride lipase; format: biochemical, Bacillus stearothermophilus H-165; conditions: named substance used as substrate
Method: (8) Substrate specificity: The substrate specificity of the monoglyceride lipase of this invention was investigated under conditions which followed the below-described measurement method of enzymatic activity for the monoglyceride lipase of this invention.
(§1) To 0.4 ml of a reaction solution of the above composition, 50 μl of 10 mM monolaurin (0.5% aqueous solution of "Triton X-100") was added. The resultant mixture was provisionally heated at 37° C. for 2-3 minutes and 50 μl of an enzyme solution was added to initiate a reaction. Exactly 10 minutes later, 2.5 ml of 0.5% SDS (sodium dodecyl suflate) was added to terminate the reaction. The absorbance was measured at a wavelength of 550 nm. Regarding the enzymatic activity, the activity capable of producing 1 μmole of glycerol per minute was defined as 1 Unit (1 U). The following equation will be followed upon calculation of enzymatic activity (potency) by this measurement method of enzymatic activity. [formula] ΔA 550: Absorbance at the wavelength of 500 nm 2.95: Total volume of reaction mixture (ml)

[2] = system: monoglyceride lipase of this invention; test: Effects of surface active agents and metal ions on the monoglyceride lipase; format: biochemical, Bacillus stearothermophilus H-165; conditions: for Activity of lipase (%): not added = 100, 10 min
Method: as §1, with “activity.” for “activity. [formula] ΔA 550: Absorbance at the wavelength of 500 nm 2.95: Total volume of reaction mixture (ml)”

[3] = system: monoglyceride lipase of this invention; test: Glycerol liberated from α,β-diglycerides by pancreatic lipase plus monoglyceride lipase; format: biochemical, Bacillus stearothermophilus H-165; conditions: for glycerol liberated from the α,β-diglyceride substrate: α-position hydrolyzed by pancreatic lipase, then monoglyceride lipase of this invention on the β-monoglyceride formed
Method: 2) Substrate specificity of the monoglyceride lipase upon use of α,β-diglyceride as a substrate:
i) The below-described α,β-diglycerides were separately employed as substrates. Their α-positions were hydrolyzed by using pancreatic lipase and the monoglyceride lipase of this invention was caused to act on β-monoglycerides thus formed. Thereafter, glycerol thus liberated was analyzed.

[4] = Confirmation by HPLC of fatty acid liberated from α-linoleoyl-β-oleoyl-diglyceride; format: biochemical; conditions: 37° C., 10 minutes, pH 8.3; monoglyceride lipase (0.5 U) added to the pancreatic lipase reaction solution
Method: 1) Confirmation of a fatty acid liberated from α-linoleoyl-β-oleoyl-diglyceride as a substrate, by high performance liquid chromatography (HPLC): i) Pancreas-derived lipase (50 μl) was added to 1.0 ml of a reaction solution having a composition of 0.5 mg of α-linoleoyl-β-oleoyl-diglyceride, 1.8 mg of a non-ionic surface active agent ("Triton X-100", trade name; product of Sigma Chemical Company), 3.8 mg of deoxycholic acid, 20 U of colipase, 0.15 mg of calcium chloride, and 200 μl of 0.1 M N-tri(hydroxymethyl) methyl-3-aminopropanesulfonic acid (TAPS)-NaOH (pH 8.3). After allowing them to react at 37° C. for 10 minutes, the reaction was terminated. A 15 μl aliquot of the reaction mixture was applied on a column and was then analyzed by high performance liquid chromatography under the following conditions.
Column: "Zorbox ODS" (trade name; 4.6 mm.phi.×25 cm)
Solvent: acetonitrile:H2 O (96:4)
Detection: ultraviolet absorption at 205 nm […]
ii) The monoglyceride lipase (0.5 U) was added to a reaction solution of the same composition as that employed above. A fatty acid liberated in substantially the same manner was detected by high performance liquid chromatography. As a result, linoleic acid and oleic acid were confirmed at the retention times of 23 minutes and 31 minutes respectively.

## CCCCC/C=C\C/C=C\CCCCCCCC(=O)OCC(CO)OC(=O)CCCCCCC/C=C\C/C=C\CCCCC (stereo not shown) [1,2-dilinolein]
[1]
  glycerol hydrolyzed from the substrate in the presence of the monoglyceride lipase: not detected

## CCCCC/C=C\C/C=C\CCCCCCCC(=O)OCC(O)COC(=O)CCCCCCC/C=C\C/C=C\CCCCC [1,3-dilinolein]
[1]
  glycerol hydrolyzed from the substrate in the presence of the monoglyceride lipase: not detected

## [Ca+2].[Cl-].[Cl-] [CaCl2]
[2]
  effect of addition on the activity of the monoglyceride lipase (in words): not affected

## C[C@H](CCC(=O)O)[C@H]1CC[C@H]2[C@@H]3[C@H](O)C[C@@H]4C[C@H](O)CC[C@]4(C)[C@H]3C[C@H](O)[C@]12C [Cholic acid]
[2]
  effect of addition on the activity of the monoglyceride lipase (in words): inhibition of the activity is observed in a high concentration range

## [Cl-].[Cl-].[Mg+2] [MgCl2]
[2]
  effect of addition on the activity of the monoglyceride lipase (in words): not affected

## CCCCCCCCCCCC(=O)OCC(O)CO (stereo not shown) [Monolaurin]
[1]
  activity against the substrate (in words): maximum activity

## CCCCCCCC/C=C\CCCCCCCC(=O)OC(CO)CO [Monoolein (β-monoglyceride), Monoolein]
[1]; Monolaurin = 100.0
  Activity of lipase (%): 75.6%

## CCCCCCCC/C=C\CCCCCCCC(=O)OCC(COC(=O)CCCCCCC/C=C\CCCCCCCC)OC(=O)CCCCCCC/C=C\CCCCCCCC [Triolein]
[1]
  glycerol hydrolyzed from the substrate in the presence of the monoglyceride lipase: not detected

## CCCCC/C=C\C/C=C\CCCCCCCC(=O)OCC(CO)OC(=O)CCCCCCC/C=C\C/C=C\CCCCC (stereo not drawn) [α,β-dilinoleylglyceride]
[3]
  glycerol liberated from the α,β-diglyceride substrate: glycerol was detected

## CCCCCCCC/C=C\CCCCCCCC(=O)OCC(CO)OC(=O)CCCCCCCCCCCCCCC (stereo not drawn) [α-oleyl-β-palmitoyldiglyceride]
[3]
  glycerol liberated from the α,β-diglyceride substrate: glycerol was detected

## CCCCCCCC/C=C\CCCCCCCC(=O)OC(CO)COC(=O)CCCCCCCCCCCCCCC (stereo not drawn) [α-palmitoyl-β-oleoyldiglyceride]
[3]
  glycerol liberated from the α,β-diglyceride substrate: glycerol was detected

## Triton X-100
[2]
  effect of addition on the activity of the monoglyceride lipase (in words): inhibition of the activity is observed in a high concentration range
[2]; reagent concentration 0.1%
  Activity of lipase (%): 81.7%
[2]; reagent concentration 0.5%
  Activity of lipase (%): 46.5%

B1: pancreatic lipase: pancreas-derived lipase that hydrolyzes the α-position of α,β-diglyceride (protein, UniProt P00591 1-450, looked up)
Pancreatic triacylglycerol …: SEVCFPRLGCFSDDAPWAGIVQRPLKILPWSPKDVDTRFLLYTNQNQNNYQELVADPSTITNSNFRMDRKTRFIIHGFIDKGEEDWLSNICKNLFKVESVNCICVDWKGGSRTGYTQASQNIRIVGAEVAYFVEVLKSSLGYSPSNVHVIGHSLGSHAAGEAGRRTNGTIERITGLDPAEPCFQGTPELVRLDPSDAKFVDVIHTDAAPIIPNLGFGMSQTVGHLDFFPNGGKQMPGCQKNILSQIVDIDGIWEGTRDFVACNHLRSYKYYADSILNPDGFAGFPCDSYNVFTANKCFPCPSEGCPQMGHYADRFPGKTNGVSQVFYLNTGDASNFARWRYKVSVTLSGKKVTGHILVSLFGNEGNSRQYEIYKGTLQPDNTHSDEFDSDVEVGDLQKVKFIWYNNNVINPTLPRVGASKITVERNDGKVYDFCSQETVREEVLLTLNPC
[4]
  position of α,β-diglyceride / monoglyceride acted on, from the fatty acid liberated: act on the α-position of α,β-diglyceride
[3]; pancreatic lipase used singly
  glycerol liberated from the α,β-diglyceride substrates: glycerol was not detected
